Test results: the supplement of paper PMC10307832

How the values were obtained:
Assay in all cases: relative viability (nuclei count vs DMSO), 5 days (fraction); higher = more cells survive
Dasatinib + Trametinib = compound: Cc1nc(Nc2ncc(C(=O)Nc3c(C)cccc3Cl)s2)cc(N2CCN(CCO)CC2)n1 [Dasatinib] + CC(=O)Nc1cccc(-n2c(=O)n(C3CC3)c(=O)c3c(Nc4ccc(I)cc4F)n(C)c(=O)c(C)c32)c1 [Trametinib] (partner 0.02 µM)
In short: (§1)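 For relative viability, nuclei counts in treated wells were divided by those in vehicle wells. Lung cancer cell lines had been pin-tool dosed in 1536-well plates the day after seeding and cultured for 5 days, then fixed and stained in one step (final 0.05% Triton X-100, 1% formaldehyde, 1 ug/ml Hoechst) and imaged at 4×. Doses were one drug alone or a fixed anchor-drug dose plus five library-drug doses (not always all listed) in √10 steps, and values are duplicate-plate medians.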

Dasatinib + Olaparib = compound: Cc1nc(Nc2ncc(C(=O)Nc3c(C)cccc3Cl)s2)cc(N2CCN(CCO)CC2)n1 [Dasatinib] + O=C(c1cc(Cc2n[nH]c(=O)c3ccccc23)ccc1F)N1CCN(C(=O)C2CC2)CC1 [Olaparib] (partner 8 µM)
In short: as §1

Dasatinib + Pictilisib = compound: Cc1nc(Nc2ncc(C(=O)Nc3c(C)cccc3Cl)s2)cc(N2CCN(CCO)CC2)n1 [Dasatinib] + CS(=O)(=O)N1CCN(Cc2cc3nc(-c4cccc5[nH]ncc45)nc(N4CCOCC4)c3s2)CC1 [Pictilisib] (partner 1 µM)
In short: as §1

ALW-II-49-7 + Foretinib = compound: Cc1ccc(C(=O)Nc2cccc(C(F)(F)F)c2)cc1Nc1cncc(C(N)=O)c1 [ALW-II-49-7] + COc1cc2c(Oc3ccc(NC(=O)C4(C(=O)Nc5ccc(F)cc5)CC4)cc3F)ccnc2cc1OCCCN1CCOCC1 [Foretinib] (partner 0.25 µM)
In short: as §1

| Cell Line | relative viability (Dasatinib + Trametinib; first compound 0.005 µM) | relative viability (Dasatinib + Trametinib; first compound 0.01581 µM) | relative viability (Dasatinib + Trametinib; first compound 0.05 µM) | relative viability (Dasatinib + Trametinib; first compound 0.1581 µM) | relative viability (Dasatinib + Trametinib; first compound 0.5 µM) | relative viability (Dasatinib + Olaparib; first compound 0.005 µM) | relative viability (Dasatinib + Olaparib; first compound 0.01581 µM) | relative viability (Dasatinib + Olaparib; first compound 0.05 µM) | relative viability (Dasatinib + Olaparib; first compound 0.1581 µM) | relative viability (Dasatinib + Olaparib; first compound 0.5 µM) | relative viability (Dasatinib + Pictilisib; first compound 0.005 µM) | relative viability (Dasatinib + Pictilisib; first compound 0.01581 µM) | relative viability (Dasatinib + Pictilisib; first compound 0.05 µM) | relative viability (Dasatinib + Pictilisib; first compound 0.1581 µM) | relative viability (Dasatinib + Pictilisib; first compound 0.5 µM) | relative viability (ALW-II-49-7 + Foretinib; first compound 0.08 µM) | relative viability (ALW-II-49-7 + Foretinib; first compound 0.253 µM) | relative viability (ALW-II-49-7 + Foretinib; first compound 0.8 µM) | relative viability (ALW-II-49-7 + Foretinib; first compound 2.53 µM) | relative viability (ALW-II-49-7 + Foretinib; first compound 8 µM) |
| --- | --- | --- | --- | --- | --- | --- | --- | --- | --- | --- | --- | --- | --- | --- | --- | --- | --- | --- | --- | --- |
| NCI-H1993 | 0.418 | 0.396 | 0.532 | 0.353 | 0.525 | 1.08 | 1.13 | 1.23 | 0.895 | 0.794 | 0.923 | 0.682 | 0.723 | 0.776 | 0.866 | 0.7 | 0.852 | 0.797 | 0.756 | 0.892 |
| LOU-NH91 | 0.79 | 0.752 | 0.698 | 0.562 | 0.393 | 0.925 | 0.807 | 0.726 | 0.615 | 0.372 | 0.497 | 0.492 | 0.401 | 0.439 | 0.341 | 0.912 | 0.945 | 0.921 | 0.879 | 0.944 |
| SW 900 | 0.783 | 0.474 | 0.405 | 0.393 | 0.188 | 0.65 | 0.436 | 0.395 | 0.324 | 0.336 |  |  |  |  |  | 0.943 | 0.866 | 0.96 | 0.913 | 0.831 |
| LCLC-103H | 0.687 | 0.598 | 0.574 | 0.535 | 0.516 | 0.74 | 0.716 | 0.718 | 0.508 | 0.356 | 0.665 | 0.514 | 0.515 | 0.286 | 0.17 | 0.707 | 0.832 | 0.926 | 0.735 | 0.77 |
| NCI-H1915 | 0.291 | 0.245 | 0.228 | 0.151 | 0.0841 | 0.267 | 0.231 | 0.235 | 0.151 | 0.149 | 0.936 | 0.84 | 0.763 | 0.463 | 0.231 | 1.17 | 1.07 | 1.06 | 0.864 | 0.816 |
| IA-LM |  |  |  |  |  | 1.06 | 0.537 | 0.904 | 0.706 | 0.6 | 0.416 | 0.312 | 0.378 | 0.276 | 0.257 | 1.06 | 0.999 | 1.28 | 1.02 | 0.416 |
| NCI-H1734 | 0.665 | 0.59 | 0.612 | 0.599 | 0.512 | 0.601 | 0.479 | 0.509 | 0.367 | 0.196 | 0.367 | 0.362 | 0.355 | 0.307 | 0.229 | 0.958 | 0.91 | 0.871 | 0.741 | 0.799 |
| SK-MES-1 | 0.566 | 0.475 | 0.361 | 0.217 | 0.157 | 0.766 | 0.794 | 0.56 | 0.214 | 0.151 | 0.329 | 0.287 | 0.242 | 0.165 | 0.16 | 0.834 | 0.687 | 0.737 | 0.977 | 0.831 |
| Calu-6 |  |  |  |  |  | 0.57 | 0.434 | 0.449 | 0.357 | 0.34 | 0.732 | 0.65 | 0.742 | 0.604 | 0.527 | 0.914 | 0.832 | 0.912 | 0.832 | 0.805 |
| HCC-15 | 0.354 | 0.336 | 0.332 | 0.253 | 0.207 | 0.763 | 0.764 | 0.851 | 0.733 | 0.689 | 0.69 | 0.567 | 0.681 | 0.486 | 0.502 | 1.08 | 1.1 | 1.03 | 0.96 | 1 |
| SK-LU-1 | 0.349 | 0.306 | 0.291 | 0.247 | 0.252 | 0.471 | 0.317 | 0.323 | 0.188 | 0.167 | 0.369 | 0.312 | 0.244 | 0.201 | 0.174 | 0.894 | 0.895 | 0.923 | 0.797 | 0.592 |
| NCI-H2023 | 0.487 | 0.49 | 0.432 | 0.364 | 0.326 | 0.43 | 0.456 | 0.377 | 0.378 | 0.379 | 0.21 | 0.142 | 0.202 | 0.173 | 0.151 | 0.841 | 1.02 | 0.966 | 1.02 | 1.09 |
| NCI-H2342 | 0.662 | 0.722 | 0.774 | 0.515 | 0.294 | 0.564 | 0.397 | 0.364 | 0.274 | 0.285 |  |  |  |  |  | 1.19 | 0.986 | 1.07 | 1.03 | 0.981 |
| NCI-H1299 |  |  |  |  |  | 0.959 | 0.983 | 0.998 | 0.639 | 0.297 | 0.676 | 0.359 | 0.313 | 0.091 | 0.0817 | 1.09 | 1.16 | 1.09 | 0.996 | 0.965 |
| NCI-H522 | 0.767 | 0.63 | 0.668 | 0.591 | 0.599 | 0.707 | 0.513 | 0.591 | 0.52 | 0.549 |  |  |  |  |  |  |  |  |  |  |
| NCI-H1623 |  |  |  |  |  |  |  |  |  |  |  |  |  |  |  | 0.889 | 0.809 | 0.87 | 0.649 | 0.859 |
| NCI-H1648 | 0.437 | 0.352 | 0.44 | 0.235 | 0.175 | 0.73 | 0.612 | 0.855 | 0.314 | 0.221 |  |  |  |  |  |  |  |  |  |  |
| NCI-H1703 |  |  |  |  |  | 0.287 | 0.25 | 0.144 | 0.147 | 0.148 | 0.2 | 0.195 | 0.203 | 0.179 | 0.169 | 0.271 | 0.407 | 0.306 | 0.308 | 0.352 |
| ABC-1 |  |  |  |  |  | 0.867 | 0.767 | 0.786 | 0.621 | 0.841 | 0.937 | 0.625 | 0.659 | 0.644 | 0.506 | 0.959 | 1.11 | 1.14 | 0.863 | 1.42 |
